Read-outs that look alike come from different tables or passages of the source.

The source of these data is paper PMC6199744, “Development of Chemical Proteomics for the Folateome and Analysis of the Kinetoplastid Folateome” (ACS Infectious Diseases, 2018).

Holding throughout (format): binding
In test [1] the target is T1, HeLa cell extract proteins (Homo sapiens, UniProt O95372).
T1 construct: endogenous in cells; host or cells: HeLa cell extract

The target in test [2] is T2, HeLa cell extract proteins (Homo sapiens, UniProt Q9UBN7).
T2 construct: endogenous in cells; host or cells: HeLa cell extract
T2 sequence (Q9UBN7 1-1215): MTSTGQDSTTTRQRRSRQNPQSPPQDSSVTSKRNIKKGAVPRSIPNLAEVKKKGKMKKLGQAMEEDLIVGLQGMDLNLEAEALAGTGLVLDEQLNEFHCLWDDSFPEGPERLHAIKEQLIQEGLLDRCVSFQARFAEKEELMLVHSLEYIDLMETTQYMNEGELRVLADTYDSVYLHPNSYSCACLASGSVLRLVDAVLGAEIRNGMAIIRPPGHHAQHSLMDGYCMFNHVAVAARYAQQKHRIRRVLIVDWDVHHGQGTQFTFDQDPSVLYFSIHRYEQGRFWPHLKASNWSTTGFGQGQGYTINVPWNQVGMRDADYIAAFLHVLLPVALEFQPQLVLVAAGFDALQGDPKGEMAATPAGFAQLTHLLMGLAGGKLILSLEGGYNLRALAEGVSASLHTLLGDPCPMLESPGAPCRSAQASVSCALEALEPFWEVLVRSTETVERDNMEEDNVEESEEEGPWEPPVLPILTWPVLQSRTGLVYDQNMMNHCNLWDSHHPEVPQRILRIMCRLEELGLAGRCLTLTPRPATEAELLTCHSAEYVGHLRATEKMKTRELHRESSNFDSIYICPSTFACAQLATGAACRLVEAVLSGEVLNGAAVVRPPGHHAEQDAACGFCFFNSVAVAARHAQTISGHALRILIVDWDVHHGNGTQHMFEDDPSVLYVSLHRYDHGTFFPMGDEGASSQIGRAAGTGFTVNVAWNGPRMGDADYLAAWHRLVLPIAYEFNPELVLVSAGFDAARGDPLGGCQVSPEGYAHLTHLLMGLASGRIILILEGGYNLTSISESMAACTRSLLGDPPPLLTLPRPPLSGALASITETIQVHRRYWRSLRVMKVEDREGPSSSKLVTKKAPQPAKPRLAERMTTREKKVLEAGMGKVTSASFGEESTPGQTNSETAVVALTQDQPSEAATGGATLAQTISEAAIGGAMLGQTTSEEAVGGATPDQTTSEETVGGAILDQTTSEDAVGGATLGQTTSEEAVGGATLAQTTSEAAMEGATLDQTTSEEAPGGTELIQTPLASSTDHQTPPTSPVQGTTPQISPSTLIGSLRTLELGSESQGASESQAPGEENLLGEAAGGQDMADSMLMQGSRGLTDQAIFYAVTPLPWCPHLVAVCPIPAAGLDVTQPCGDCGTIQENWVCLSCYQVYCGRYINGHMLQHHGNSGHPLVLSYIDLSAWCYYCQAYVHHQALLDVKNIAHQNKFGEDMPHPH

For test [3], the target named is T3, HeLa cell extract proteins (Homo sapiens, UniProt Q16531).
T3 construct: endogenous in cells; host or cells: HeLa cell extract

Test [4] concerns the target T4, HeLa cell extract proteins (Homo sapiens, UniProt Q5JVF3).
T4 construct: endogenous in cells; host or cells: HeLa cell extract

Test [5] concerns the target T5, HeLa cell extract proteins (Homo sapiens, UniProt Q9ULK4).
T5 construct: endogenous in cells; host or cells: HeLa cell extract
T5 sequence (Q9ULK4 1-1368): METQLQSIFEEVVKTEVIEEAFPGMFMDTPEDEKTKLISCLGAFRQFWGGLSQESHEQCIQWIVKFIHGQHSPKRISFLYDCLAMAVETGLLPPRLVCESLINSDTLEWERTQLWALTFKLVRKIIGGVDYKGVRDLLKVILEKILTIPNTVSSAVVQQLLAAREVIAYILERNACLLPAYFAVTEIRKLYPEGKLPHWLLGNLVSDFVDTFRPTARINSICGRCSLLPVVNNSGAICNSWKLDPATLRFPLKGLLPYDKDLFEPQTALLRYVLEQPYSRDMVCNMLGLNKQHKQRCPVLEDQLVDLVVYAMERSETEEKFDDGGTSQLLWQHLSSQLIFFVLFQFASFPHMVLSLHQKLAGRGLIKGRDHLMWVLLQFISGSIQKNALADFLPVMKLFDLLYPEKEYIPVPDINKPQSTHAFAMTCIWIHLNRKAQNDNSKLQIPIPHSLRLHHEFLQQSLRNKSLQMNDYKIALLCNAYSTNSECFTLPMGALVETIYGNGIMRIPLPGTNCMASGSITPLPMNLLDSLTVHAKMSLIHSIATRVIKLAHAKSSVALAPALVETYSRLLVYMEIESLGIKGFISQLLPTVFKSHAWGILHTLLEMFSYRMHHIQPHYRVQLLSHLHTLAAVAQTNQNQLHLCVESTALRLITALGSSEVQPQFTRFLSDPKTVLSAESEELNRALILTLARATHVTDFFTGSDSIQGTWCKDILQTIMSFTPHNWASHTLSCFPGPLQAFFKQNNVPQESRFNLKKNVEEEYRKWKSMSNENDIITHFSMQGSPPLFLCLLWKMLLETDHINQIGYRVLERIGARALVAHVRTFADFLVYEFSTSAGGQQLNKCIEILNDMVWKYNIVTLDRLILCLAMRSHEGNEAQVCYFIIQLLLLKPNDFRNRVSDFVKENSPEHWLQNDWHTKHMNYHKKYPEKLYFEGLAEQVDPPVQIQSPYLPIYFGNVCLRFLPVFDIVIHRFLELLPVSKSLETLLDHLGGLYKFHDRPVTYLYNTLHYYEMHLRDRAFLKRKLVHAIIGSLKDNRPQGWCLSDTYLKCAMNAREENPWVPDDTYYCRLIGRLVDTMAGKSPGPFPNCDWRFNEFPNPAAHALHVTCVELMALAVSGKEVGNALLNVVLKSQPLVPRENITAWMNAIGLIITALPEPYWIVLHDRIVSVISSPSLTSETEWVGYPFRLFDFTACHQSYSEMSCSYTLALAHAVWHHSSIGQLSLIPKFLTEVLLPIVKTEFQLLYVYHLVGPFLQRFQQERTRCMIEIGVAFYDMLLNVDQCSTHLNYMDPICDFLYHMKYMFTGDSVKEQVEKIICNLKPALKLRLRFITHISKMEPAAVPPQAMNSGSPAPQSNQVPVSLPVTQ

In test [6] the target is T6, HeLa cell extract proteins (Homo sapiens, UniProt P60174).
T6 construct: endogenous in cells; host or cells: HeLa cell extract

Test [7] has as its target T7, HeLa cell extract proteins (Homo sapiens, UniProt P28070).
T7 construct: endogenous in cells; host or cells: HeLa cell extract

Where [8] appears, read: HeLa, protein TPI1 (ISOFORM 1 OF TRIOSEPHOSPHATE ISOMERASE.).

T6 sequence (P60174 whole entry): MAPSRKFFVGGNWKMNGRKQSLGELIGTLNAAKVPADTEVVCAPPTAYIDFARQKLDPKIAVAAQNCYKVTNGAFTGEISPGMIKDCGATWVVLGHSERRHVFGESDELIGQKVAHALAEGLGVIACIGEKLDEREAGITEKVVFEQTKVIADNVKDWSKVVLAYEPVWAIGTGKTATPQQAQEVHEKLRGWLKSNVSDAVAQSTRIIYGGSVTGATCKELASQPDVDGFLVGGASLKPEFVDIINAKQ
T7 sequence (P28070 46-264): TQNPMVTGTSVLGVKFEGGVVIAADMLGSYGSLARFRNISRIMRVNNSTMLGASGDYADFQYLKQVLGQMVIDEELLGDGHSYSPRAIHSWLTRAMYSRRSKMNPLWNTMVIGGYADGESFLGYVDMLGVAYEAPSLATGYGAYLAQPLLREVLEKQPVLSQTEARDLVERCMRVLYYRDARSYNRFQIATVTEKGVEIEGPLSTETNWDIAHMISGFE
T4 sequence (Q5JVF3 whole entry): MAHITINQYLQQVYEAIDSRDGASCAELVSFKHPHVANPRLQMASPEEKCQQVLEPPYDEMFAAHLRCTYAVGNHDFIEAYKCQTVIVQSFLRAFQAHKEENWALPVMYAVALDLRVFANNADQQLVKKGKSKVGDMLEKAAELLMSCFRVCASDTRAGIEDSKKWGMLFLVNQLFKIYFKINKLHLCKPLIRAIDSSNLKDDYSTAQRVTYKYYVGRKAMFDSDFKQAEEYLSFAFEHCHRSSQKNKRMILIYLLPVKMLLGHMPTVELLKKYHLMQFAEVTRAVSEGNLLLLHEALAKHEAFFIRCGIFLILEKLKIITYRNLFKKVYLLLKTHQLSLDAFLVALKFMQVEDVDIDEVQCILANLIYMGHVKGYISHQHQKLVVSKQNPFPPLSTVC
T1 sequence (O95372 whole entry): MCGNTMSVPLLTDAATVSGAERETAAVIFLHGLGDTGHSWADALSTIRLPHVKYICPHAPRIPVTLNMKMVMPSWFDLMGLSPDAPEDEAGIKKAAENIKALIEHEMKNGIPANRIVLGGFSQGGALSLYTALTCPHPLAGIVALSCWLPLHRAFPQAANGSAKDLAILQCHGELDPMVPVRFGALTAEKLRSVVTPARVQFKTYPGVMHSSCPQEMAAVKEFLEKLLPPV
T3 sequence (Q16531 whole entry): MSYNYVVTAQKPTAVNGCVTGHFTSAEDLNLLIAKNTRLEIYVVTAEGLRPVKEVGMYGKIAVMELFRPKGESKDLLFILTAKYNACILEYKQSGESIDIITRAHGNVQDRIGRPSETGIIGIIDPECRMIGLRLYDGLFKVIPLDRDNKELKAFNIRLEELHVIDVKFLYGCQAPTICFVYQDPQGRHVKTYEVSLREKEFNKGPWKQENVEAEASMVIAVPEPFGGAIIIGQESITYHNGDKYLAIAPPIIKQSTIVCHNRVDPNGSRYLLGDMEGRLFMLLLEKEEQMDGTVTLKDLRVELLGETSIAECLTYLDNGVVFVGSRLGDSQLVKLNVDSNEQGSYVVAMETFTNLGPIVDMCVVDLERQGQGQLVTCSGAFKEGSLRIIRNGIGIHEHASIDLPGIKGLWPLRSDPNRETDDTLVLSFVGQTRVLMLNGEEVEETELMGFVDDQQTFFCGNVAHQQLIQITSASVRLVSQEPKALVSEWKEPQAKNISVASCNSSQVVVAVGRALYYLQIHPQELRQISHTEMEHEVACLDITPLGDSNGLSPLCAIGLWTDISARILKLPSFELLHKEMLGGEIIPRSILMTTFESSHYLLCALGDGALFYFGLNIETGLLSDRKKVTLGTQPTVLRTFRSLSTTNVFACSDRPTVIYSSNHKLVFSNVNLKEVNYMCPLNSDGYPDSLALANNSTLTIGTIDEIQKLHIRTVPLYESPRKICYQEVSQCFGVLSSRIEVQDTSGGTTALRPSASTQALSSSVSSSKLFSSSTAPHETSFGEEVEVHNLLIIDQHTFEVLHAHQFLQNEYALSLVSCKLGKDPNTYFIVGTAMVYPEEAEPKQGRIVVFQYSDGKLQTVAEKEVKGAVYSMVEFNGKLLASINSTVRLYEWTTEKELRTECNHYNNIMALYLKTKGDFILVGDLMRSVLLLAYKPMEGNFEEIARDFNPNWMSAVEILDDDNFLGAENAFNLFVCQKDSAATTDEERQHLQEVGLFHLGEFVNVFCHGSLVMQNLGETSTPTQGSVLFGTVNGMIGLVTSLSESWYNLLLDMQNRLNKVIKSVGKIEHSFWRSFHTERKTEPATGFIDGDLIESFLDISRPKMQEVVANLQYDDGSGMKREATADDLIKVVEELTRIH

Regarding `Nc1nc2c(c(=O)[nH]1)N(C=O)C(CNc1ccc(C(=O)N[C@@H](CCC(=O)O)C(=O)O)cc1)CN2` (stereo partly shown) [LEU, leucovorin], the “fold changes relative to vehicle control” value in test [1] (protein LYPLA2, HeLa) came to 0.89; in test [2] (HeLa, captured protein HDAC6), 1.02; in test [3] (HeLa, protein DDB1), 0.95; in test [4] (protein PCID2, HeLa), 0.74; in test [5] (HeLa, protein MED23), 0.91; in test [6] (HeLa, protein TPI1) it was 1.03. Also, the “fold changes relative to vehicle control” value in test [7] (HeLa, protein PSMB4) is on record as 0.98.

For `Nc1nc2[nH]cc(CCc3ccc(C(=O)N[C@@H](CCC(=O)O)C(=O)O)cc3)c2c(=O)[nH]1` [PTX, pemetrexed], the “fold changes relative to vehicle control” value in test [1] was 0.99; in test [2] it was 0.98; in test [3], 0.9; in test [4] it was 0.68; in test [5] it was 0.95; in test [6] it was 1.22. Besides, in test [7], the “fold changes relative to vehicle control” value stood at 0.97.

Regarding `CCCCCCOc1ccc(Cc2cnc(N)nc2N)cc1` [compound 1], the “fold changes relative to vehicle control” value in test [1] (HeLa, protein LYPLA2) was determined as 0.82; in test [2] (captured protein HDAC6, HeLa), 0.95; in test [3] (HeLa, protein DDB1), 0.9; in test [4] (HeLa, protein PCID2), 1.13; in test [5] (captured protein MED23, HeLa) it was 0.94; in test [6] (setting [8]), 1.44 fold. In test [7] (protein PSMB4, HeLa), the “fold changes relative to vehicle control” value was found to be 1.12.

Regarding `CCCCCCOc1cccc(Cc2cnc(N)nc2N)c1` [compound 2], the “fold changes relative to vehicle control” value in test [1] (HeLa, protein LYPLA2) is recorded as 1.19; in test [2] (captured protein HDAC6, HeLa) it was 1.1; in test [3] (HeLa, protein DDB1) it was 1.05; in test [4] (HeLa, protein PCID2), 0.97; in test [5] (captured protein MED23, HeLa) it was 1.04; in test [6] (setting [8]), 2.37 fold. Also, the “fold changes relative to vehicle control” value in test [7] (protein PSMB4, HeLa) amounted to 1.21.

On to `Nc1nc2cccc(-c3ccccc3)c2n1Cc1ccc(Cl)c(Cl)c1` [compound 3], for which the “fold changes relative to vehicle control” value in test [1] (HeLa, protein LYPLA2) is on record as 0.97; in test [2] (captured protein HDAC6, HeLa) it was 1.14; in test [3] (HeLa, protein DDB1) it was 0.87; in test [4] (HeLa, protein PCID2), 1.2; in test [5] (captured protein MED23, HeLa), 1.1; in test [6] (HeLa, protein TPI1 (ISOFORM 1 OF TRIOS[…].)), 0.88 fold. The “fold changes relative to vehicle control” value in test [7] (protein PSMB4, HeLa) was 1.05.

As for `NCCOCCOCC(=O)Nc1nc2ncc(CNc3ccc(C(=O)NC(CCC(=O)O)C(=O)O)cc3)nc2c(=O)[nH]1` (stereo not shown) [compound 6], the “fold changes relative to vehicle control” value is listed as 1.09 in test [1] (protein LYPLA2, HeLa); 1.06 in test [2] (HeLa, captured protein HDAC6); 0.99 in test [3] (HeLa, protein DDB1); 0.91 in test [4] (protein PCID2, HeLa); 0.93 in test [5] (HeLa, protein MED23); 1.41 in test [6] (HeLa, protein TPI1). Further, the “fold changes relative to vehicle control” value in test [7] (HeLa, protein PSMB4) came to 1.04.

For the compound `NCCCNc1ccc(C(=O)NC(CCC(=O)O)C(=O)O)cc1` (stereo not shown) [compound 7], the “fold changes relative to vehicle control” value in test [1] (protein LYPLA2, HeLa) is reported as 1.01; in test [2] (HeLa, captured protein HDAC6), 1.02; in test [3] (HeLa, protein DDB1) it was 0.96; in test [4] (protein PCID2, HeLa), 0.75; in test [5] (HeLa, protein MED23) it was 0.97; in test [6] (HeLa, protein TPI1), 1. Also, the “fold changes relative to vehicle control” value in test [7] (HeLa, protein PSMB4) is 0.95.
